Data from the supplement of paper PMC10331698.
± gives the standard deviation of the averaged measurements.

Columns and labels:
Assay in all cases: level (log10 ratio to DMSO vehicle control); higher = higher biomarker level / cell amount than vehicle control
Details in all cases: in DMSO
[1] = compound: O=S(=O)(O)C(F)(F)C(F)(F)C(F)(F)C(F)(F)F [Perfluorobutanesulfonic acid]
Protocol: (§1)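 BioMAP Diversity Plus panel of 12 human primary cell co-culture systems (3C, 4H, LPS, SAg, BT, BF4T, BE3C, CASM3C, HDF3CGF, KF3CT, MyoF, Mphg). Compounds were added 1 h before stimulation and left for 24 h (MyoF 48 h; BT 72 h for soluble read-outs or 6 d for IgG). Biomarkers were read by ELISA, cytotoxicity by SRB, PBMC viability and proliferation by Alamar Blue. Each well value was divided by the mean of 8 DMSO control wells on the same plate and log10 transformed; duplicate blinded samples were tested at 4 concentrations.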

[2] = compound: O=P(O)(O)CCC(F)(F)C(F)(F)C(F)(F)C(F)(F)C(F)(F)C(F)(F)C(F)(F)C(F)(F)F [((Perfluorooctyl)ethyl)phosphonic acid]
Protocol: as §1

[3] = compound: FC(F)(F)C(F)(F)C(F)(F)C(F)(F)C(F)(F)C(F)(F)C(F)(F)CCI [1-Iodo-1H,1H,2H,2H-perfluorononane]
Protocol: as §1

[4] = compound: CC(C)(C)C(=O)CC(=O)C(F)(F)C(F)(F)C(F)(F)F [(Heptafluorobutanoyl)pivaloylmethane]
Protocol: as §1

[5] = compound: CCCCCCCCC(F)(F)C(F)(F)C(F)(F)C(F)(F)C(F)(F)C(F)(F)F [1-(Perfluorohexyl)octane]
Protocol: as §1

[6] = compound: N=C(N)C(F)(F)C(F)(F)C(F)(F)C(F)(F)C(F)(F)C(F)(F)C(F)(F)F [Perfluorooctanamidine]
Protocol: as §1

[7] = compound: NC(=O)C(F)(F)C(F)(F)C(F)(F)C(F)(F)C(F)(F)C(F)(F)C(F)(F)F [Perfluorooctanamide]
Protocol: as §1

Test System | level (log10) ([1]; 6700 nM) | level (log10) ([1]; 20000 nM) | level (log10) ([1]; 60000 nM) | level (log10) ([2]; 6700 nM) | level (log10) ([2]; 20000 nM) | level (log10) ([2]; 60000 nM) | level (log10) ([3]; 6700 nM) | level (log10) ([3]; 20000 nM) | level (log10) ([4]; 6700 nM) | level (log10) ([4]; 20000 nM) | level (log10) ([4]; 60000 nM) | level (log10) ([5]; 6700 nM) | level (log10) ([5]; 20000 nM) | level (log10) ([6]; 6700 nM) | level (log10) ([6]; 20000 nM) | level (log10) ([6]; 60000 nM) | level (log10) ([7]; 6700 nM) | level (log10) ([7]; 20000 nM) | level (log10) ([7]; 60000 nM)
CASM3C:CD106/VCAM-1 | -0.0465 ± 0.021 | -0.0255 ± 0.025 | -0.033 ± 0.0057 | -0.0325 ± 0.00071 | 0 ± 0.0014 | 0.0335 ± 0.019 | -0.019 ± 0.0099 | -0.0645 ± 0.012 | -0.006 ± 0.014 | -0.004 ± 0.021 | -0.002 ± 0.03 | -0.023 ± 0.0014 | -0.0115 ± 0.021 | -0.0165 ± 0.00071 | -0.0195 ± 0.012 | -0.032 | -0.0245 ± 0.005 | -0.014 ± 0.028 | -0.004 ± 0.027
CASM3C:CD141/Thrombomodulin | 0.01 ± 0.028 | -0.0095 ± 0.016 | 0.0075 ± 0.016 | -0.01 ± 0.0071 | -0.014 ± 0.0042 | 0.0245 ± 0.015 | 0.0135 ± 0.0035 | 0.0065 ± 0.03 | -0.008 ± 0.033 | -0.005 ± 0.018 | -0.038 ± 0.0042 | -0.0145 ± 0.00071 | -0.0165 ± 0.03 | -0.008 ± 0.016 | -0.0205 ± 0.005 | 0.043 | -0.0225 ± 0.021 | 0.0155 ± 0.0021 | 0.015 ± 0.0071
CASM3C:CD142/Tissue Factor | -0.0085 ± 0.0035 | -0.0115 ± 0.018 | 0.0135 ± 0.012 | -0.0235 ± 0.019 | -0.006 ± 0.0099 | 0.046 ± 0.079 | 0.0155 ± 0.049 | -0.055 ± 0.0028 | -0.017 ± 0.0057 | -0.0275 ± 0.0035 | -0.037 ± 0.027 | -0.0265 ± 0.028 | -0.0295 ± 0.005 | -0.022 ± 0.024 | -0.033 ± 0.0014 | 0.042 | -0.0085 ± 0.046 | -0.0095 ± 0.0064 | -0.003 ± 0.051
CASM3C:CXCL8/IL-8 | 0.0255 ± 0.049 | 0.0255 ± 0.025 | 0.0375 ± 0.025 | -0.01 ± 0.02 | 0 ± 0.024 | 0.023 ± 0.048 | 0.004 ± 0.0042 | 0.004 ± 0.0028 | -0.006 ± 0.0042 | -0.018 ± 0.0028 | -0.0045 ± 0.025 | -0.001 ± 0.017 | 0.006 ± 0.0099 | 0.011 ± 0.017 | 0.0075 ± 0.0092 | 0.053 | 0.013 ± 0.025 | 0.013 ± 0.016 | 0.044 ± 0.014
CASM3C:CXCL9/MIG | 0.01 ± 0.028 | 0.0135 ± 0.035 | 0.0465 ± 0.0092 | 0.0115 ± 0.011 | 0.019 ± 0.028 | 0.041 ± 0.03 | -0.0355 ± 0.025 | -0.057 ± 0.042 | -0.004 ± 0.0014 | -0.0085 ± 0.00071 | 0.006 ± 0.011 | -0.0115 ± 0.0021 | 0.0255 ± 0.005 | -0.005 ± 0.013 | -0.017 ± 0.024 | 0.069 | -0.0205 ± 0.037 | 0.0135 ± 0.0021 | 0.0365 ± 0.032
CASM3C:HLA-DR | -0.0085 ± 0.0035 | -0.0075 ± 0.00071 | -0.0025 ± 0.0078 | -0.0265 ± 0.012 | -0.048 | -0.03 ± 0.081 | 0.0055 ± 0.0064 | -0.007 ± 0.0071 | 0.011 ± 0.0014 | 0.0005 ± 0.0092 | 0.0255 ± 0.0035 | -0.0155 ± 0.015 | -0.0125 ± 0.005 | -0.0335 ± 0.016 | -0.0655 ± 0.011 | -0.022 | 0.003 ± 0.041 | 0.0125 ± 0.0092 | 0.0005 ± 0.011
CASM3C:IL-6 | -0.032 ± 0.028 | -0.0375 ± 0.0021 | -0.015 ± 0.0057 | -0.0215 ± 0.06 | -0.004 ± 0.025 | 0.0865 ± 0.032 | -0.0105 ± 0.013 | 0.0315 ± 0.056 | -0.0155 ± 0.0064 | -0.0375 ± 0.018 | -0.0145 ± 0.028 | -0.019 ± 0.031 | 0.0205 ± 0.023 | -0.046 ± 0.023 | -0.041 ± 0.035 | 0.041 | 0.0435 ± 0.036 | -0.0225 ± 0.015 | 0.008 ± 0.023
CASM3C:LDLR | -0.0305 ± 0.0035 | -0.0255 ± 0.025 | -0.0345 ± 0.053 | -0.0075 ± 0.0021 | -0.005 ± 0.0042 | 0.0505 ± 0.039 | -0.016 ± 0.021 | 0.026 ± 0.024 | -0.004 ± 0.017 | -0.0085 ± 0.0035 | -0.0075 ± 0.018 | -0.0125 ± 0.00071 | 0.019 ± 0.014 | 0.012 ± 0.013 | 0.036 ± 0.0085 | 0.108 | -0.0175 ± 0.0035 | 0.0135 ± 0.026 | 0.031 ± 0.027
CASM3C:M-CSF | -0.007 ± 0.031 | -0.002 | 0.0025 ± 0.011 | -0.0145 ± 0.011 | -0.008 ± 0.011 | 0.045 ± 0.04 | -0.0035 ± 0.0078 | 0.0125 ± 0.028 | 0.002 ± 0.017 | -0.0165 ± 0.013 | -0.016 ± 0.014 | -0.0095 ± 0.013 | 0.0125 ± 0.036 | -0.0095 ± 0.021 | -0.025 ± 0.028 | 0.034 | -0.0055 ± 0.04 | 0.0035 ± 0.03 | 0.027 ± 0.048
CASM3C:PAI-I | -0.0095 ± 0.012 | 0.0035 ± 0.0064 | 0.007 ± 0.0099 | -0.0035 ± 0.011 | 0.003 ± 0.0071 | 0.0015 ± 0.0078 | 0.0015 ± 0.00071 | 0.0035 ± 0.00071 | -0.004 ± 0.0028 | -0.0035 ± 0.0064 | 0.003 ± 0.0099 | -0.011 ± 0.0014 | 0.0035 ± 0.0078 | 0.0055 ± 0.012 | 0.0015 ± 0.0064 | 0.022 | -0.0015 ± 0.0064 | 0.004 ± 0.0057 | -0.0015 ± 0.016
CASM3C:Proliferation | -0.0455 ± 0.044 | -0.0405 ± 0.013 | -0.019 ± 0.017 | -0.0545 ± 0.005 | -0.062 ± 0.044 | -0.101 ± 0.03 | -0.001 | 0.0105 ± 0.04 | -0.032 ± 0.03 | 0.0195 ± 0.0092 | -0.017 ± 0.037 | -0.0005 ± 0.067 | 0.0175 ± 0.046 | 0.0185 ± 0.0078 | 0.0085 ± 0.0035 | -0.062 | -0.0135 ± 0.005 | -0.036 ± 0.027 | -0.0415 ± 0.015
CASM3C:SRB | -0.0045 ± 0.0035 | -0.0045 ± 0.0035 | -0.008 ± 0.0028 | -0.0115 ± 0.0035 | -0.017 ± 0.0028 | -0.008 ± 0.0085 | -0.0025 ± 0.0021 | -0.0015 ± 0.0064 | 0.01 ± 0.0014 | -0.002 ± 0.0014 | 0.0035 ± 0.00071 | -0.0025 ± 0.0035 | -0.0085 ± 0.00071 | -0.0015 ± 0.011 | -0.0105 ± 0.00071 | -0.018 | 0 ± 0.0071 | -0.002 ± 0.0014 | -0.003 ± 0.0014
CASM3C:Serum Amyloid A | -0.0575 ± 0.08 | -0.0795 ± 0.071 | -0.068 ± 0.055 | -0.0065 ± 0.044 | -0.0225 ± 0.015 | 0.083 ± 0.055 | -0.007 ± 0.031 | 0.0135 ± 0.076 | 0.014 ± 0.035 | 0.001 ± 0.064 | -0.009 ± 0.024 | -0.02 ± 0.0057 | 0.0055 ± 0.066 | 0.001 ± 0.0014 | -0.0085 ± 0.018 | 0.053 | -0.034 ± 0.044 | -0.0465 ± 0.069 | -0.062 ± 0.051
HDF3CGF:CCL2/MCP-1 | -0.0075 ± 0.037 | 0.0005 ± 0.025 | -0.023 ± 0.03 | 0.028 ± 0.011 | -0.005 ± 0.0014 | -0.0855 ± 0.056 | -0.034 ± 0.017 | -0.018 ± 0.016 | -0.0285 ± 0.016 | 0.027 | -0.0065 ± 0.025 | -0.0185 ± 0.005 | -0.004 ± 0.013 | -0.0075 ± 0.0035 | -0.005 ± 0.018 | -0.068 | -0.023 ± 0.0057 | -0.0145 ± 0.022 | -0.033 ± 0.0014
HDF3CGF:CD54/ICAM-1 | -0.009 ± 0.016 | -0.0145 ± 0.0021 | 0.003 ± 0.011 | -0.009 ± 0.0099 | -0.0235 ± 0.015 | -0.0625 ± 0.028 | -0.0105 ± 0.016 | 0.0095 ± 0.0035 | 0 ± 0.0057 | -0.0075 ± 0.013 | 0.0065 ± 0.00071 | 0.0025 ± 0.005 | -0.0055 ± 0.037 | -0.0235 ± 0.0064 | -0.014 ± 0.013 | -0.072 | -0.009 | 0.002 ± 0.0085 | -0.02 ± 0.016
